The results in this text go back to patent publication US8268859B2, “Glucocorticoid mimetics, methods of making them, pharmaceutical compositions and uses thereof” (Boehringer Ingelheim International GmbH, priority 2008, dated 2012).

In brackets after ≈: the same amount, converted by molar mass. Like-named read-outs stand apart in the source and are kept apart here.

The nature of series [1]: High throughput solubility. The class given is physicochemical. The following applies: aqueous buffer (pION system solution), pH 7, aqueous buffer, kinetic from dmso stock.
The nature of series [2]: Human microsomal stability. The format is in vitro ADME. The following applies: pH 7.4; human liver microsomes; read-out: human liver microsome half life.
In the next series the target is T1, Potassium Channel HERG (Homo sapiens, UniProt Q12809).
T1 construct: expressed in transfected cells; host or cells: HEK-293 cells
The series can be described thus: hERG assays (either hERG binding assay or hERG patch clamp assay). The format is cell-based. Conditions: Table 3, not specified per compound.

Series [3] has as its target T2, human glucocorticoid receptor (GR) complex (Homo sapiens, UniProt P04150).
T2 construct: made in house; host or cells: insect expression system (baculovirus lysate)
T2 sequence (P04150 1-777): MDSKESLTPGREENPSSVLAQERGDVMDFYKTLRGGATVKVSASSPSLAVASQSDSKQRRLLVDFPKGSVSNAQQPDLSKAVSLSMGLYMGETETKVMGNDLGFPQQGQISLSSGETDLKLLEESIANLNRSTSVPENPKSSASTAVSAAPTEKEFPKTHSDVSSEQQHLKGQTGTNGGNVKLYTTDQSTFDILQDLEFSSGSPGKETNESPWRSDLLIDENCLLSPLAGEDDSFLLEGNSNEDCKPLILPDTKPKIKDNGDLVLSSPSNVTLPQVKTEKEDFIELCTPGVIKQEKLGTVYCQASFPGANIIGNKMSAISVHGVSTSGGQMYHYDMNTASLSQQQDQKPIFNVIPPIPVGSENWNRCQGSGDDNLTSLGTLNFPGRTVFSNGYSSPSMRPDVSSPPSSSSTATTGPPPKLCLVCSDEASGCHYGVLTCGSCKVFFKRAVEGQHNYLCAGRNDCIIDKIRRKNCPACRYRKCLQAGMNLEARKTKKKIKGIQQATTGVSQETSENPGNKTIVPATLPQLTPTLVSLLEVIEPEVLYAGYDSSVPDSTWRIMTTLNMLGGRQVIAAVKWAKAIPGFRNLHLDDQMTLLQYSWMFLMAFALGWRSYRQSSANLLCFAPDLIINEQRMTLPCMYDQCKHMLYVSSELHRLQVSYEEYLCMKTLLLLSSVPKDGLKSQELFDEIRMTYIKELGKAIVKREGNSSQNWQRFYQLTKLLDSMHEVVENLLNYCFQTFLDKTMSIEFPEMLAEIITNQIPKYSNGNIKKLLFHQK
The series can be described thus: Glucocorticoid receptor fluorescence polarization competitive binding assay.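 Note: GR complex expressed in an insect system, wells lacking compound give full signal, excess unlabeled dexamethasone defines the blank, IC50 from logistic curve fit of polarization.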

Another series deals with human recombinant CYP3A4 (Homo sapiens, UniProt P08684). The series is described as follows: Cytochrome P450 inhibition assay (substrate 7-benzyloxy-4-(trifluoromethyl)coumarin).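 Note: compounds preincubated at least 10 min at 37 °C before adding enzyme plus substrate, reaction run 30 min at 37 °C, ketoconazole standard curve on every plate.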 The class given is in vitro ADME.
The mark [4] stands for this setting: Table 1, competition with TAMRA-labeled dexamethasone, read-out: GR IC50.

human recombinant CYP3A4, sequence (P08684 whole entry): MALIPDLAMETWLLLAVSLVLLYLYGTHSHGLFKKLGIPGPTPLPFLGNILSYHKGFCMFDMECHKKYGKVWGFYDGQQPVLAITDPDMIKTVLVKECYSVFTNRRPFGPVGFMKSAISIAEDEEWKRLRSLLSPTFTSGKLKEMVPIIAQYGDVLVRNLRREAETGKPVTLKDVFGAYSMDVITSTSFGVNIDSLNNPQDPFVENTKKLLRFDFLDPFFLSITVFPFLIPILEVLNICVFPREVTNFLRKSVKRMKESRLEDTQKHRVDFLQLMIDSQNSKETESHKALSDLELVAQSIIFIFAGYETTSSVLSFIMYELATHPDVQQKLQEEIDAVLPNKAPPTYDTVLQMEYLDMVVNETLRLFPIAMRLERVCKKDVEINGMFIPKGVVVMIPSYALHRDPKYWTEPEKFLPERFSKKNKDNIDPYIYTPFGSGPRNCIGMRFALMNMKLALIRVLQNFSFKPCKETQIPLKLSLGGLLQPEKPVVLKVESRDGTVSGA
T1 sequence (Q12809 whole entry): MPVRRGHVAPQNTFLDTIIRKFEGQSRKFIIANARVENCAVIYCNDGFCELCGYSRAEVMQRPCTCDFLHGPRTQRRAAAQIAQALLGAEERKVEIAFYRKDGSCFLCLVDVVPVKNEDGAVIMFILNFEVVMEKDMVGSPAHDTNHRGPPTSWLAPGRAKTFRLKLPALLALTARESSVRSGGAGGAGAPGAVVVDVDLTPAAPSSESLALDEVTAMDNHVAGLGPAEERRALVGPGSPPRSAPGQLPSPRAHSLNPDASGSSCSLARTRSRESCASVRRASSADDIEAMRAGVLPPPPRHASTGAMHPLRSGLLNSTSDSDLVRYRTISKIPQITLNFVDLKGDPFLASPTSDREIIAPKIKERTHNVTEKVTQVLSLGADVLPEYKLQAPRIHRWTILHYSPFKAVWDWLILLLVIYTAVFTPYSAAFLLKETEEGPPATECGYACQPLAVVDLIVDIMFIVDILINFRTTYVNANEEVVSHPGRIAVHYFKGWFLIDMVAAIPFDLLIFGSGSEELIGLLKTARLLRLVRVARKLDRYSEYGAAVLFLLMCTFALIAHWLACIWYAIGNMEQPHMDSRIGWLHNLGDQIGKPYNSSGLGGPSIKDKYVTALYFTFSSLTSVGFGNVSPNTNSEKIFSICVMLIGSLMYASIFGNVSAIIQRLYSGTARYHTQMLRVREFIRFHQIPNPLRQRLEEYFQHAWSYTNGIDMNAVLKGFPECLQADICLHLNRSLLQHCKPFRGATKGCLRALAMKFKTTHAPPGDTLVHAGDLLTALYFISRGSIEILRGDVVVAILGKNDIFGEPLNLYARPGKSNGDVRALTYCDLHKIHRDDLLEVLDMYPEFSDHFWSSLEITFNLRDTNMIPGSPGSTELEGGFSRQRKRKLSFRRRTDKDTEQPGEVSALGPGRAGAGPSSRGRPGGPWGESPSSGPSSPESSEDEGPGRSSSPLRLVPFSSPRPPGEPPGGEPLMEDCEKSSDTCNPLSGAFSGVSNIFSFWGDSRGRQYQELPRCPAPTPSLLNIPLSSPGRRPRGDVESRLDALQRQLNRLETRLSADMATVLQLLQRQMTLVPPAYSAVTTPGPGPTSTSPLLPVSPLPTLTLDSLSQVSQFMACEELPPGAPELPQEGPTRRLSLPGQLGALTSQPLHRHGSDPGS

As to `CC(C)(CC(O)(Cc1cc2cc(S(C)(=O)=O)ncc2[nH]1)C(F)(F)F)c1ccccc1S(C)(=O)=O` (stereo not drawn), the solubility in series [1] was determined as 59 µg/mL (≈ 114 µM). For the same compound, the half-life in series [2] is less than 3 min.

`CC(C)(C[C@@](O)(Cc1cc2cc(S(C)(=O)=O)ncc2[nH]1)C(F)(F)F)c1ccccc1C(N)=O` showed a solubility in series [1] of 17 µg/mL (≈ 35.2 µM). At Potassium Channel HERG, the IC50 was more than 30 µM. Besides, in series [2], the half-life worked out at 44 min.

For the compound `CCS(=O)(=O)c1cc2cc(C[C@](O)(CC(C)(C)c3ccc(F)cc3C(N)=O)C(F)(F)F)[nH]c2cn1`, in series [1], the solubility is more than 100 µg/mL. Also, the half-life in series [2] was more than 300 min.

In series [1], `CC(C)(CC(O)(Cc1cc2cc(S(C)(=O)=O)ncc2[nH]1)C(F)(F)F)c1ccc(F)cc1C(N)=O` (stereo not drawn) had a solubility of more than 100 µg/mL. The IC50 on Potassium Channel HERG is more than 30 µM. In series [2], the half-life stood at 45 min.

For `CC(C)S(=O)(=O)c1cc2cc(CC(O)(CC(C)(C)c3ccccc3S(C)(=O)=O)C(F)(F)F)[nH]c2cn1` (stereo not drawn) [1,1,1-Trifluoro-4-(2-methanesulfonylphenyl)-4-methyl-2-[5-(propane-2-sulfonyl)-1H-pyrrolo[2,3-c]pyridin-2-ylmethyl]pentan-2-ol], the IC50 in series [3] (setting [4]) amounted to 0.097 µM; on human recombinant CYP3A4 (Table 1, read-out: CYP3A4 IC50), 22 µM.

Regarding `CC(C)(CC(O)(Cc1cc2nc(S(C)(=O)=O)ccc2[nH]1)C(F)(F)F)c1cccc(F)c1S(C)(=O)=O` (stereo not drawn) [1,1,1-Trifluoro-4-(3-fluoro-2-methanesulfonylphenyl)-2-(5-meethanesulfonyl-1H-pyrrolo[3,2-b]pyridin-2-ylmethyl)-4-methylpentan-2-ol], the IC50 worked out at 0.065 µM in series [3] (setting [4]) and 12 µM on human recombinant CYP3A4 (Table 1, read-out: CYP3A4 IC50).

For the compound `CC(C)(CC(O)(Cc1cc2cc(S(C)(=O)=O)ncc2[nH]1)C(F)(F)F)c1cccc(F)c1S(C)(=O)=O` (stereo not drawn) [1,1,1-Trifluoro-4-(3-fluoro-2-methanesulfonylphenyl)-2-(5-methanesulfonyl-1H-pyrrolo[2,3-c]pyridin-2-ylmethyl)-4-methylpentan-2-ol], the IC50 in series [3] (setting [4]) is 0.062 µM; at human recombinant CYP3A4 (Table 1, read-out: CYP3A4 IC50), more than 30 µM.

On to `CC(C)S(=O)(=O)c1cc2cc(CC(O)(CC(C)(C)c3cccc(F)c3S(C)(=O)=O)C(F)(F)F)[nH]c2cn1` (stereo not drawn) [1,1,1-Trifluoro-4-(3-fluoro-2-methanesulfonylphenyl)-4-methyl-2-[5-(propane-2-sulfonyl)-1H-pyrrolo[2,3-c]pyridin-2-ylmethyl]pentan-2-ol], for which the IC50 in series [3] (setting [4]) was 0.21 µM; on human recombinant CYP3A4 (Table 1, read-out: CYP3A4 IC50), more than 30 µM.

For the compound `CC(C)S(=O)(=O)c1cc2cc(CC(O)(CC(C)(C)c3ccc(F)cc3S(C)(=O)=O)C(F)(F)F)[nH]c2cn1` (stereo not drawn) [1,1,1-Trifluoro-4-(4-fluoro-2-methanesulfonylphenyl)-4-methyl-2-[5-(propane-2-sulfonyl)-1H-pyrrolo[2,3-c]pyridin-2-ylmethyl]pentan-2-ol], the half-maximal inhibitory concentration (IC50) in series [3] (setting [4]) amounted to 0.053 µM; at human recombinant CYP3A4 (Table 1, read-out: CYP3A4 IC50) it was 19 µM.

In the case of `CC(C)(CC(O)(Cc1cc2cc(S(C)(=O)=O)ncc2[nH]1)C(F)(F)F)c1cccc2c1S(=O)(=O)C=C2` (stereo not drawn) [4-(1,1-Dioxo-1H-1λ^6-benzo[b]thiophen-7-yl)-1,1,1-trifluoro-2-(5-methanesulfonyl-1H-pyrrolo[2,3-c]pyridin-2-ylmethyl)-4-methylpentan-2-ol], the IC50 came to 0.089 µM in series [3] (setting [4]) and 7.4 µM at human recombinant CYP3A4 (Table 1, read-out: CYP3A4 IC50).

As for `CCS(=O)(=O)c1cc2cc(CC(O)(CC(C)(C)c3cccc4c3S(=O)(=O)C=C4)C(F)(F)F)[nH]c2cn1` (stereo not drawn) [4-(1,1-Dioxo-1H-1λ^6-benzo[b]thiophen-7-yl)-2-(5-ethanesulfonyl-1H-pyrrolo[2,3-c]pyridin-2-ylmethyl)-1,1,1-trifluoro-4-methylpentan-2-ol], the IC50 amounted to 0.058 µM in series [3] (setting [4]) and 4.1 µM on human recombinant CYP3A4 (Table 1, read-out: CYP3A4 IC50).

As to `CC(C)(CC(O)(Cc1cc2cc(S(C)(=O)=O)ncc2[nH]1)C(F)(F)F)c1ccccc1Br` (stereo not drawn) [4-(2-Bromophenyl)-1,1,1-trifluoro-2-(5-methanesulfonyl-1H-pyrrolo[2,3-c]pyridin-2-ylmethyl)-4-methylpentan-2-ol], the IC50 in series [3] (setting [4]) came to 0.007 µM; at human recombinant CYP3A4 (Table 1, read-out: CYP3A4 IC50), 23 µM.

On to `CC(C)(CC(O)(Cc1cc2nc(S(C)(=O)=O)ccc2[nH]1)C(F)(F)F)c1cc(Cl)ccc1S(C)(=O)=O` (stereo not drawn) [4-(5-Chloro-2-methanesulfonylphenyl)-1,1,1-trifluoro-2-(5-methanesulfonyl-1H-pyrrolo[3,2-b]pyridin-2-ylmethyl)-4-methylpentan-2-ol], for which the IC50 in series [3] was 0.008 µM; on human recombinant CYP3A4 (Table 1, read-out: CYP3A4 IC50) it was 4.1 µM.

As for `CCCS(=O)(=O)c1cc2cc(CC(O)(CC(C)(C)c3cc(Cl)ccc3S(C)(=O)=O)C(F)(F)F)[nH]c2cn1` (stereo not drawn) [4-(5-Chloro-2-methanesulfonylphenyl)-1,1,1-trifluoro-4-methyl-2-[5-(propane-1-sulfonyl)-1H-pyrrolo[2,3-c]pyridin-2-ylmethyl]pentan-2-ol], the IC50 in series [3] (setting [4]) amounted to 0.014 µM; at human recombinant CYP3A4 (Table 1, read-out: CYP3A4 IC50) it was 0.9 µM.

As to `CC(C)S(=O)(=O)c1cc2cc(CC(O)(CC(C)(C)c3cc(Cl)ccc3S(C)(=O)=O)C(F)(F)F)[nH]c2cn1` (stereo not drawn) [4-(5-Chloro-2-methanesulfonylphenyl)-1,1,1-trifluoro-4-methyl-2-[5-(propane-2-sulfonyl)-1H-pyrrolo[2,3-c]pyridin-2-ylmethyl]pentan-2-ol], the IC50 in series [3] (setting [4]) was 0.017 µM; at human recombinant CYP3A4 (Table 1, read-out: CYP3A4 IC50) it was 6 µM.

For `CC(C)(CC(O)(Cc1cc2cc(S(C)(=O)=O)ncc2[nH]1)C(F)(F)F)c1cccc2ccsc12` (stereo not drawn) [4-Benzo[b]thiophen-7-yl-1,1,1-trifluoro-2-(5-methanesulfonyl-1H-pyrrolo[2,3-c]pyridin-2-ylmethyl)-4-methylpentan-2-ol], the IC50 was 0.01 µM in series [3] and 2.7 µM at human recombinant CYP3A4 (Table 1, read-out: CYP3A4 IC50).

Consider `CC(C)(CC(O)(Cc1cc2cc(S(C)(=O)=O)ncc2[nH]1)C(F)(F)F)c1cc(Br)ccc1O` (stereo not drawn) [4-Bromo-2-[4,4,4-trifluoro-3-hydroxy-3-(5-methanesulfonyl-1H-pyrrolo[2,3-c]pyridin-2-ylmethyl)-1,1-dimethylbutyl]phenol], for which the IC50 worked out at 0.007 µM in series [3] (setting [4]) and 5.6 µM at human recombinant CYP3A4 (Table 1, read-out: CYP3A4 IC50).

As for `CC(C)(C[C@@](O)(Cc1cc2nc(S(C)(=O)=O)ncc2[nH]1)C(F)(F)F)c1ccc(F)cc1C(N)=O` [5-Fluoro-2-[(R)-4,4,4-trifluoro-3-hydroxy-3-(2-methanesulfonyl-5H-pyrrolo[3,2-d]pyrimidin-6-ylmethyl)-1,1-dimethylbutyl]benzamide], the IC50 in series [3] (setting [4]) was 0.21 µM; on human recombinant CYP3A4 (Table 1, read-out: CYP3A4 IC50), 11 µM.

As to `CC(C)(C[C@@](O)(Cc1cc2nc(S(C)(=O)=O)ccc2[nH]1)C(F)(F)F)c1ccc(F)cc1C(N)=O` [5-Fluoro-2-[(R)-4,4,4-trifluoro-3-hydroxy-3-(5-methanesulfonyl-1H-pyrrolo[3,2-b]pyridin-2-ylmethyl)-1,1-dimethyl-butyl]benzamide], the IC50 came to 0.027 µM in series [3] and 7 µM on human recombinant CYP3A4 (Table 1, read-out: CYP3A4 IC50).

Turning to `CC(C)(C[C@@](O)(Cc1cc2cc(S(C)(=O)=O)ncc2[nH]1)C(F)(F)F)c1cccc(Br)c1` [(R)-4-(3-Bromophenyl)-1,1,1-trifluoro-2-(5-methanesulfonyl-1H-pyrrolo[2,3-c]pyridin-2-ylmethyl)-4-methylpentan-2-ol], the IC50 in series [3] stood at 0.009 µM; on human recombinant CYP3A4 (Table 1, read-out: CYP3A4 IC50), 20 µM.

Consider `CC(C)(C[C@@](O)(Cc1cc2nc(S(C)(=O)=O)ccc2[nH]1)C(F)(F)F)c1cccc(Br)c1` [(R)-4-(3-Bromophenyl)-1,1,1-trifluoro-2-(5-methanesulfonyl-1H-pyrrolo[3,2-b]pyridin-2-ylmethyl)-4-methylpentan-2-ol], for which the 50% inhibitory concentration (IC50) in series [3] (setting [4]) is 0.014 µM; on human recombinant CYP3A4 (Table 1, read-out: CYP3A4 IC50), 15 µM.

As for `CCS(=O)(=O)c1cc2cc(C[C@](O)(CC(C)(C)c3cc(Cl)cc4c3OCC4)C(F)(F)F)[nH]c2cn1` [(R)-4-(5-Chloro-2,3-dihydrobenzofuran-7-yl)-2-(5-ethanesulfonyl-1H-pyrrolo[2,3-c]pyridin-2-ylmethyl)-1,1,1-trifluoro-4-methylpentan-2-ol], the IC50 in series [3] (setting [4]) stood at 0.007 µM; at human recombinant CYP3A4 (Table 1, read-out: CYP3A4 IC50), 1.8 µM.

Consider `CC(C)(C[C@@](O)(Cc1cc2cc(S(C)(=O)=O)ncc2[nH]1)C(F)(F)F)c1cc(Cl)cc2c1OCC2` [drawing 3, (R)-4-(5-Chloro-2,3-dihydrobenzofuran-7-yl)-1,1,1-trifluoro-2-(5-methanesulfonyl-1H-pyrrolo[2,3-c]pyridin-2-ylmethyl)-4-methylpentan-2-ol], for which the IC50 was found to be 0.006 µM in series [3] (setting [4]) and 6.5 µM on human recombinant CYP3A4 (Table 1, read-out: CYP3A4 IC50).

For the compound `CC(C)(C[C@@](O)(Cc1cc2cc(S(C)(=O)=O)ncc2[nH]1)C(F)(F)F)c1cc(Cl)cc2c1OCC2` [drawing 95], the IC50 at Potassium Channel HERG came to 9.4 µM; on human recombinant CYP3A4 (Table 3, read-out: CYP3A4 Inhibition IC50) it was 6.5 µM. The half-life in series [2] was less than 3 min.
